Several values for one entry are separate records, joined by “and”; a condition that tells them apart may be missing. Identical values can stand only once. Like-named read-outs stand apart in the source and are kept apart here.
Experiments:
[1] = test system: human pancreatic tumor xenograft Panc-1; conditions: for Efficacy Score = 10*(TWd1−TWdn)/TWd1: single dose IV
Text: [formula] where TTE is expressed in days, endpoint volume is in mm^3, b is the intercept, and m is the slope of the line obtained by linear regression of a log-transformed tumor growth data set. The data set is comprised of the first observation that exceeded the study endpoint volume and the three consecutive observations that immediately preceded the attainment of the endpoint volume. […] Animals classified as TR (treatment-related) deaths or NTRM (non-treatment-related metastasis) deaths are assigned a TTE value equal to the day of death. Animals classified as NTR (non-treatment-related) deaths are excluded from TTE calculations. Treatment efficacy was determined from tumor growth delay (TGD), which is defined as the increase in the median TTE for a treatment group compared to the control group: TGD=T−C, expressed in days, or as a percentage of the median TTE of the control group:
Treatment may cause partial regression (PR) or complete regression (CR) of the tumor in an animal. In a PR response, the tumor volume is 50% or less of its Day 1 volume for three consecutive measurements during the course of the study, and equal to or greater than 13.5 mm^3 for one or more of these three measurements. In a CR response, the tumor volume is less than 13.5 mm^3 for three consecutive measurements during the course of the study. An animal with a CR response at the termination of a study is additionally classified as a long-term tumor-free survivor (LTTFS).
With respect to toxicity, the animals were weighed daily on Days 1-5, then twice weekly until the completion of the study. The mice were examined frequently for overt signs of any adverse, drug-related side effects. […] The log rank test was employed to analyze the significance of the difference between the TTE values of a drug-treated group and the vehicle-treated control group. The log rank test analyzes the data for all animals except the NTR deaths. The two-tailed statistical analyses were conducted at P=0.05. The group median tumor growth curves show the median tumor volume (MTV) as a function of time. When an animal exited the study due to tumor size or TR death, the final tumor volume recorded for the animal was included with the data used to calculate the median volume at subsequent time points. If more than one death occurred in a treatment group, the tumor growth curve for that group was truncated at the time of the second death.
Human Panc-1 pancreatic carcinomas were maintained in athymic nude mice. A tumor fragment (1 mm^3) was implanted s.c. into the right flank of each test mouse. Tumors were monitored twice weekly and then daily as their size approached 200-400 mm^3 with a mean of 250-300 mm^3. On Day 1 of the study, the animals were sorted into groups of six mice, with tumor sizes of 171.5-486.0 mm^3 and group mean tumor sizes of 269.7-275.0 mm^3. Mice were sorted into groups containing six mice each, and treated according to the protocol in Tables 2A and 2B. All treatments were administered intravenously. Control Group 1 mice received the ethanol 5% and Liposyn II 95% vehicle, once on Day 1 (qd×1). […] Dosing volumes were 0.5 ml/20 g body weight for qd×1 dosing regimens and 0.3 mL/20 g body weight for the qod×5 or q4d×4 dosing schedules. Dosing volumes were scaled to the body weight of each animal. The vehicle was given to Group 1 mice in a single dose on Day 1 (qd×1).

[2] = test system: DLD-1 (resistant human colon carcinoma); experiment: In vitro cytotoxicity, MTT assay, DLD-1; assay type: cell-based
[3] = test system: HT29 (human colon carcinoma) xenograft; conditions: for # Death NTR / # Death TR / MDS to 1.0 g ± SEM (n) / Efficacy Score = 10*(TWd1−TWdn)/TWd1: HT29; for # Death NTR / # Death TR: 6 mice; for Efficacy Score = 10*(TWd1−TWdn)/TWd1: best score 10; for Max. % BW Loss; Day: mouse, in vivo, po
Text: Score=10*(TWd1−TWdn)/TWd1, where
TWd1=tumor weight on day 1
TWDn=lowest tumor weight on day 10 or later
Thus the best score for complete regression would be 10.

[4] = Group 2: 20 mg/kg IV qod × 5, 6 mice
[5] = Group 3: 30 mg/kg IV q4d × 4, 6 mice
[6] = Group 4: 120 mg/kg IV qd × 1, 6 mice
[7] = Group 5: 60 mg/kg IV qd × 5 (Table 2A), 6 mice

Which “antitumor effectiveness among IV regimens” value ([1]; 30 mg/kg q4d×4 IV regimen) does the source give for `CC(=O)OC12COC1CC(O)C1(C)C(=O)C(OC(=O)C3CCCC3)C3=C(C)C(OC(=O)C(O)C(NC(=O)OC(C)C)c4cccs4)CC(O)(C(OC(=O)c4ccccc4)C21)C3(C)C` (centres unmarked) [Compound 9091] here?
The value was “most effective”.

What about the “No. of CR” value [1, 4] of the same molecule?
Its value is 0.

What about the “No. of LTTES” value [1, 4] of the same molecule?
The value was 0.

What about the “No. of NTR” value [1, 4] of the same molecule?
The value was 0.

What about the “No. of PR” value [1, 4] of the same molecule?
Its value is 1.

What about the “No. of TR” value [1, 4] of the same molecule?
Its value is 5.

And the “Max % BW Loss; Day” value ([1]; Group 2: 20 mg/kg IV qod × 5, Day 10)?
The value was −15.7%;.

And the “Tumor Burden Median (n), Day 56” value ([1]; Group 2: 20 mg/kg IV qod × 5, n=1)?
Its value is 108 (1) mm^3.

What about the “Median TTE” value ([1]; Group 2: 20 mg/kg IV qod × 5, not evaluable for efficacy (five TR deaths)) of the same molecule?
The value was 10.0 days.

And the “T − C” value ([1]; Group 3: 30 mg/kg IV q4d × 4)?
The value was 40.2 days.

And the “% TGD” value ([1]; Group 3: 30 mg/kg IV q4d × 4, 30 mg/kg)?
The value was 254%.

And the “No. of CR” value [1, 5]?
Its value is 1.

What about the “No. of LTTES” value [1, 5] of the same molecule?
Its value is 1.

What about the “No. of NTR” value [1, 5] of the same molecule?
The value was 0.

And the “No. of PR” value [1, 5]?
Its value is 5.

And the “No. of TR” value [1, 5]?
The value was 0.

And the “Tumor Burden Median (n), Day 56 (MTV)” value ([1]; Group 3: 30 mg/kg IV q4d × 4, Day 56)?
Its value is 40 mm^3.

What about the “Tumor Burden Median (n), Day 56 (MTV)” value ([1]; Group 3: 30 mg/kg IV q4d × 4, Day 56, 30 mg/kg) of the same molecule?
The value was 40.25 (6) mm^3.

And the “Median TTE” value ([1]; Group 3: 30 mg/kg IV q4d × 4, endpoint 1200 mg)?
Its value is 56.0 days.

And the “T − C” value ([1]; Group 4: 120 mg/kg IV qd × 1)?
The value was 40.2 days.

What about the “% TGD” value ([1]; Group 4: 120 mg/kg IV qd × 1, 120 mg/kg) of the same molecule?
Its value is 254%.

What about the “No. of CR” value [1, 6] of the same molecule?
The value was 0.

What about the “No. of LTTES” value [1, 6] of the same molecule?
Its value is 0.

What about the “No. of NTR” value [1, 6] of the same molecule?
Its value is 2.

What about the “No. of PR” value [1, 6] of the same molecule?
The value was 6.

What about the “No. of TR” value [1, 6] of the same molecule?
Its value is 0.

What about the “Tumor Burden Median (n), Day 56 (MTV)” value ([1]; Group 4: 120 mg/kg IV qd × 1, Day 56, 120 mg/kg) of the same molecule?
Its value is 58 mm^3 and 57.5 (6) mm^3.

And the “Median TTE” value ([1]; Group 4: 120 mg/kg IV qd × 1, endpoint 1200 mg)?
The value was 56.0 days.

What about the “T − C” value ([1]; Group 5: 60 mg/kg IV qd × 5 (Table 2A)) of the same molecule?
Its value is 40.2 days.

What about the “% TGD” value ([1]; Group 5: 60 mg/kg IV qd × 5 (Table 2A), 60 mg/kg) of the same molecule?
Its value is 254%.

And the “No. of CR” value [1, 7]?
The value was 0.

And the “No. of LTTES” value [1, 7]?
The value was 0.

What about the “No. of NTR” value [1, 7] of the same molecule?
Its value is 0.

What about the “No. of PR” value [1, 7] of the same molecule?
Its value is 6.

What about the “No. of TR” value [1, 7] of the same molecule?
The value was 0.

What about the “Tumor Burden Median (n), Day 56 (MTV)” value ([1]; Group 5: 60 mg/kg IV qd × 5 (Table 2A), Day 56, 60 mg/kg) of the same molecule?
The value was 126 mm^3 and 126 (6) mm^3.

And the “Median TTE” value ([1]; Group 5: 60 mg/kg IV qd × 5 (Table 2A), endpoint 1200 mg)?
The value was 56.0 days.

And the end-of-study survivors ([1]; each of 30 mg/kg q4d×4, 120 mg/kg and 60 mg/kg single dose IV, 6 mice per group)?
Its end-of-study survivors is “six”.

What about the “Efficacy Score = 10*(TWd1−TWdn)/TWd1” value ([1]; Dose 60, best score 10) of the same molecule?
Its value is 7.7.

What about the “Efficacy Score = 10*(TWd1−TWdn)/TWd1” value ([1]; Dose 120, best score 10) of the same molecule?
Its value is 8.6.

And the IC50 [2]?
The IC50 was 1.5 nM.

What about the “# Death NTR” value ([3]; Group 18: 15 mg/kg po q4d × 4) of the same molecule?
The value was 0.

What about the “# Death TR” value ([3]; Group 18: 15 mg/kg po q4d × 4) of the same molecule?
The value was 0.

And the “MDS to 1.0 g ± SEM (n)” value ([3]; Group 18: 15 mg/kg po q4d × 4, n=6)?
Its value is 24.4 ± 1.4 (6).

What about the “# Death NTR” value ([3]; Group 19: 30 mg/kg po q4d × 4) of the same molecule?
Its value is 0.

What about the “# Death TR” value ([3]; Group 19: 30 mg/kg po q4d × 4) of the same molecule?
Its value is 0.

And the “MDS to 1.0 g ± SEM (n)” value ([3]; Group 19: 30 mg/kg po q4d × 4, n=1)?
Its value is 25.6 ± (1).

And the “# Death NTR” value ([3]; Group 20: 45 mg/kg po q4d × 4)?
The value was 0.

What about the “# Death TR” value ([3]; Group 20: 45 mg/kg po q4d × 4) of the same molecule?
Its value is 0.

And the “# Death NTR” value ([3]; Group 21: 60 mg/kg po q4d × 4)?
The value was 0.

And the “# Death TR” value ([3]; Group 21: 60 mg/kg po q4d × 4)?
The value was 4.

And the “Efficacy Score = 10*(TWd1−TWdn)/TWd1” value ([3]; single dose oral 60 mg/kg)?
The value was 4.3.

And the “Efficacy Score = 10*(TWd1−TWdn)/TWd1” value ([3]; single dose oral 120 mg/kg)?
Its value is 8.7.

What about the “Max. % BW Loss; Day” value ([3]; 30 mg/kg) of the same molecule?
Its value is −11.3%;.

What about the “Max. % BW Loss; Day” value ([3]; 45 mg/kg) of the same molecule?
Its value is −22.6%;.

And the “Max. % BW Loss; Day” value ([3]; 60 mg/kg)?
The value was −28.1%;.

Source: US8003812B2, “C10 cyclopentyl ester substituted taxanes” (priority 2004, dated 2011)
